# Laboratory results published in EPA's ToxRefDB 2.
# What was measured:
# rat [1] = settings: Sub-acute repeat dose toxicity, Oral, Gavage/Intubation, dose end: 7 day, group: systemic
# mouse [2] = settings: Sub-acute repeat dose toxicity, Oral, Gavage/Intubation, dose end: 30 day, group: systemic
# dog [3] = settings: Sub-acute repeat dose toxicity, beagle, Oral, Gavage/Intubation, dose end: 29 day, group: systemic
# dog [4] = settings: Subchronic oral toxicity in nonrodent, beagle, Gavage/Intubation, dose end: 90 day, group: systemic
# dog [5] = settings: Sub-acute repeat dose toxicity; beagle; Oral; Gavage/Intubation; dose end: 14 day; group: systemic; systemic / in life observation / clinical signs / emesis + systemic / in life observation / clinical signs / salivation + systemic / in life…
# mouse [6] = settings: Fertility (Segment I), Oral, Gavage/Intubation, dose end: 1 generation
# rat [7] = settings: Sub-acute repeat dose toxicity; Oral; Gavage/Intubation; dose end: 7 day; group: systemic; systemic / organ weight / adrenal gland / absolute + systemic / organ weight / liver / absolute + systemic / pathology microscopic / kidney…
# rat [8] = settings: Sub-acute repeat dose toxicity; Oral; Gavage/Intubation; dose end: 7 day; group: systemic; systemic / pathology microscopic / kidney / hyaline droplet + systemic / pathology microscopic / kidney / regeneration + systemic / …
# mouse [9] = settings: Sub-acute repeat dose toxicity; Oral; Feed; dose end: 14 day; group: systemic; systemic / in life observation / clinical signs / [other] + systemic / in life observation / clinical signs / anogenital staining + systemic…
# rat [10] = settings: Sub-acute repeat dose toxicity; Injection; Intravenous; dose end: 7 day; group: systemic; systemic / hematology / platelet / platelet + systemic / organ weight / liver / absolute + systemic / pathology microscopic / liver / …
# rabbit [11] = settings: Prenatal developmental toxicity study, Oral, Gavage/Intubation, dose end: 19 GD
# mouse [12] = settings: Subchronic oral toxicity in rodents, cd1, Gavage/Intubation, dose end: 13 week, group: systemic, systemic / clinical chemistry / alanine aminotransferase (alt/sgpt) / alanine aminotransferase (alt/sgpt) + systemic / clinical chemistry / …
# dog [13] = settings: Sub-acute repeat dose toxicity; beagle; Oral; Capsule; dose end: 1 month; group: systemic; systemic / clinical chemistry / glucose / glucose + systemic / in life observation / body weight / body weight + systemic / in life …
# rat [14] = settings: Sub-acute repeat dose toxicity, sprague dawley, Oral, Gavage/Intubation, dose end: 28 day, group: systemic
# dog [15] = settings: Chronic toxicity; beagle; Oral; Capsule; dose end: 1 year; group: systemic; systemic / in life observation / body weight / body weight + systemic / in life observation / clinical signs / vomitting + systemic / in …
# mouse [16] = settings: Sub-acute repeat dose toxicity, cd1, Oral, Gavage/Intubation, dose end: 4 week, group: systemic
# rat [17] = settings: Chronic toxicity; sprague dawley; Oral; Gavage/Intubation; dose end: 6 month; group: systemic; systemic / clinical chemistry / alanine aminotransferase (alt/sgpt) / alanine aminotransferase (alt/sgpt) + systemic / clinical chemistry / …
# rat [18] = settings: Prenatal developmental toxicity study, sprague dawley, Oral, Gavage/Intubation, dose end: 17 GD
# rabbit [19] = settings: Prenatal developmental toxicity study; new zealand white; Oral; Gavage/Intubation; dose end: 19 GD; group: maternal; systemic / in life observation / body weight / body weight gain + systemic / in life observation / clinical signs / anogenital staining + …
# [20] = systemic / pathology microscopic / adrenal gland / hypertrophy + systemic / pathology microscopic / kidney / regeneration + systemic / …
# [21] = systemic / clinical chemistry / alanine aminotransferase (alt/sgpt) / alanine aminotransferase (alt/sgpt) + systemic / clinical chemistry / …
# [22] = systemic / organ weight / liver / absolute + systemic / pathology microscopic / liver / hypertrophy
# [23] = systemic / in life observation / clinical signs / arrhythmia + systemic / organ weight / testes / absolute + systemic / organ weight / …
# [24] = systemic / in life observation / food consumption / food consumption + systemic / pathology microscopic / liver / depletion glycogen + …
# [25] = systemic / clinical chemistry / alkaline phosphatase (alp/alk) / alkaline phosphatase (alp/alk)
# [26] = group: maternal, reproductive / reproductive performance / mating / mating + reproductive / reproductive performance / precoital interval / precoital …
# [27] = group: parental, systemic / in life observation / body weight / body weight gain
# [28] = systemic / clinical chemistry / alanine aminotransferase (alt/sgpt) / alanine aminotransferase (alt/sgpt) + systemic / in life observation…
# [29] = systemic / in life observation / clinical signs / alopecia + systemic / in life observation / clinical signs / scabbing + systemic / organ …
# [30] = systemic / organ weight / liver / absolute + systemic / organ weight / liver / relative to body weight + systemic / pathology gross / lung…
# [31] = group: developmental, systemic / in life observation / body weight / fetal weight
# [32] = group: maternal, reproductive / reproductive performance / implantations / implantations + reproductive / reproductive performance / postimplantation loss / …
# [33] = group: maternal, systemic / in life observation / body weight / body weight + systemic / in life observation / clinical signs / piloerection + systemic / in …
smiles,measurement,setting,value
CCc1nn(CCO)c(CC)c1Oc1cc(C#N)cc(C#N)c1 [Lersivirine],LOAEL,rat [1]; [20],> 150 mg/kg/day
same,NOAEL,rat [1]; [20],≥ 150 mg/kg/day
same,NEL,rat [1]; systemic / pathology microscopic / kidney / regeneration + systemic / pathology microscopic / adrenal gland / vacuolization + systemic / …,< 35 mg/kg/day
same,LOAEL,mouse [2]; [21],> 500 mg/kg/day
same,NOAEL,mouse [2]; [21],≥ 500 mg/kg/day
same,LEL,mouse [2]; [22],50 mg/kg/day
same,NEL,mouse [2]; [22],< 50 mg/kg/day
same,LEL,dog [3]; [23],10 mg/kg/day
same,NEL,dog [3]; [23],< 10 mg/kg/day
same,LOAEL,dog [3]; [24],> 50 mg/kg/day
same,NOAEL,dog [3]; [24],≥ 50 mg/kg/day
same,LOAEL,dog [4]; [21],> 60 mg/kg/day
same,NOAEL,dog [4]; [21],≥ 60 mg/kg/day
same,LEL,dog [4]; [25],7 mg/kg/day
same,NEL,dog [4]; [25],< 7 mg/kg/day
same,LEL,dog [5],5 mg/kg/day
same,LOAEL,dog [5],> 150 mg/kg/day
same,NEL,dog [5],< 5 mg/kg/day
same,NOAEL,dog [5],≥ 150 mg/kg/day
same,LEL,mouse [6]; [26],700 mg/kg/day
same,LOAEL,mouse [6]; [26],> 700 mg/kg/day
same,NEL,mouse [6]; [26],200 mg/kg/day
same,NOAEL,mouse [6]; [26],≥ 700 mg/kg/day
same,LEL,mouse [6]; [27],200 mg/kg/day
same,LOAEL,mouse [6]; [27],> 700 mg/kg/day
same,NEL,mouse [6]; [27],70 mg/kg/day
same,NOAEL,mouse [6]; [27],≥ 700 mg/kg/day
same,LOAEL,rat [7],> 35 mg/kg/day
same,NEL,rat [7],< 35 mg/kg/day
same,NOAEL,rat [7],≥ 35 mg/kg/day
same,LEL,rat [8],23 mg/kg/day
same,LOAEL,rat [8],> 100 mg/kg/day
same,NEL,rat [8],< 23 mg/kg/day
same,NOAEL,rat [8],≥ 100 mg/kg/day
same,LOAEL,mouse [9],> 3000 mg/kg/day
same,NEL,mouse [9],750 mg/kg/day
same,NOAEL,mouse [9],≥ 3000 mg/kg/day
same,LOAEL,rat [10],> 35 mg/kg/day
same,NEL,rat [10],< 35 mg/kg/day
same,NOAEL,rat [10],≥ 35 mg/kg/day
same,NEL,"rabbit [11]; group: developmental, developmental / developmental malformation / bone / absent + developmental / developmental malformation / bone / fused",250 mg/kg/day
same,NEL,"rabbit [11]; group: maternal, reproductive / reproductive performance / postimplantation loss / postimplantation loss",< 100 mg/kg/day
CCc1c(C(=O)NN2CCCCC2)nn(-c2ccc(Cl)cc2Cl)c1-c1ccc(Br)cc1 [Surinabant],LEL,mouse [12],100 mg/kg/day
same,LOAEL,mouse [12],> 1000 mg/kg/day
same,NEL,mouse [12],< 100 mg/kg/day
same,NOAEL,mouse [12],≥ 1000 mg/kg/day
same,LEL,dog [13],10 mg/kg/day
same,LOAEL,dog [13],10 mg/kg/day
same,NEL,dog [13],< 10 mg/kg/day
same,NOAEL,dog [13],< 10 mg/kg/day
same,LOAEL,rat [14]; [21],> 300 mg/kg/day
same,NOAEL,rat [14]; [21],≥ 300 mg/kg/day
same,LEL,rat [14]; [28],30 mg/kg/day
same,NEL,rat [14]; [28],< 30 mg/kg/day
same,LEL,dog [15],1 mg/kg/day
same,LOAEL,dog [15],1 mg/kg/day
same,NEL,dog [15],< 1 mg/kg/day
same,NOAEL,dog [15],< 1 mg/kg/day
same,LOAEL,mouse [16]; [29],> 4000 mg/kg/day
same,NOAEL,mouse [16]; [29],≥ 4000 mg/kg/day
same,LEL,mouse [16]; [30],1000 mg/kg/day
same,NEL,mouse [16]; [30],< 1000 mg/kg/day
same,LEL,rat [17],30 mg/kg/day
same,LOAEL,rat [17],> 60 mg/kg/day
same,NEL,rat [17],< 30 mg/kg/day
same,NOAEL,rat [17],≥ 60 mg/kg/day
same,LEL,rat [18]; [31],100 mg/kg/day
same,LOAEL,rat [18]; [31],100 mg/kg/day
same,NEL,rat [18]; [31],10 mg/kg/day
same,NOAEL,rat [18]; [31],10 mg/kg/day
same,LOAEL,rat [18]; [32],100 mg/kg/day
same,NOAEL,rat [18]; [32],10 mg/kg/day
same,LEL,rat [18]; [33],10 mg/kg/day
same,NEL,rat [18]; [33],< 10 mg/kg/day
same,LEL,rabbit [19],0.5 mg/kg/day
same,LOAEL,rabbit [19],2 mg/kg/day
same,NEL,rabbit [19],< 0.5 mg/kg/day
same,NOAEL,rabbit [19],0.5 mg/kg/day
